In US11385234B2, “Methods and systems for detecting an analyte or classifying a sample” (Commonwealth Scientific and Industrial Research Organisation, priority 2012, dated 2022):

Assays:
[1] = target: T1, FLIPmal-2μ (FRET tagged MBP receptor) (Escherichia coli, UniProt P0AEX9); settings: cited from earlier work
T1 construct: fused on or other part: FRET pair fused to the N- and C-terminus of MBP; From Fehr et al. 2002 these are a cyan and a yellow GFP variant

GFP^2—MBP—RLuc2 = GFP^2—MBP—RLuc2 (Escherichia coli, UniProt P0AEX9); experiment: BRET^2 tagged MBP sugar assay, plate reader; format: binding
Procedure: 1 μM purified protein was used for all the energy transfer assays (final volume of 100 μL). […] Purified protein was incubated with the sugar dissolved in double deionised water or water for 30 minutes at 28° C.
(§1) BRET ratios were calculated as the ratio of maximum acceptor emission intensity to maximum donor emission intensity.
All data analysis was carried out using GraphPad Prism (version 5 for Windows, Graphpad Software, San Diego, Calif., USA). All data will be reported as means± standard deviation (SD) unless otherwise stated in the text. Two-tailed unpaired t-tests will be performed using Graphpad prism. Statistical significance is defined as p<0.05.

GFP^2—MBP—RLuc2 W140A = experiment: BRET^2 tagged MBP W140A mutant, plate reader; format: binding; settings: 0.1 mM maltose
Procedure: The W140 mutation was introduced into pRSET GFP^2—MBP—RLuc2 using site-directed mutagenesis (Stratagene) using primers C1 ([…]) (SEQ ID NO:11) and C2 ([…]) (SEQ ID NO:12). Nucleotide and amino acid sequences for BRET^2 tagged MBP receptor provided a SEQ ID NOs: 3 to 6).
1 μM purified protein was used for all the energy transfer assays (final volume of 100 μL). 1 μM purified protein was prepared by diluting the protein in phosphate buffer solution (PBS, 0.058 M […], 0.017 NaH2PO4, 0.068 M NaCl (pH 7.4)). Purified protein was incubated with the sugar dissolved in double deionised water or water for 30 minutes at 28° C. Following incubation 16.67 μM coelenterazine 400a was added and the signal was recorded immediately.
as §1

OGOR = experiment: Diacetyl assay with original OGOR sensor (native RLuc), microwell; format: biochemical, C. elegans; settings: original OGOR sensor incorporating native RLuc
Excerpt: (§2) Chimaeric BRET^2 tagged odorant receptors have the BRET^2 components inserted into the third intracellular loop (IC3) and at the C-terminus of the C. elegans odorant receptor with green fluorescent protein, GFP^2 at IC3 and Renilla luciferase, RLuc at the C-terminus of the protein (OGOR). Using site-directed mutagenesis the RLuc2 mutations were introduced into the pYES-DEST-52 OGOR sequence. Primers 1 and 2 (Table 3) were used to introduce the mutation C124A and primer pair 3 and 4 was used to introduce the M185 V mutation to make the construct named OGOR2 (FIG. 18, SEQ ID NO:1, SEQ ID NO-2).
All ligand solutions were prepared directly in water. The OGOR concentration was normalized using GFP^2 intensity at 510 nm. Assays were carried out in 96-well plates (Perkin-Elmer) in a total volume of 100 μL in phosphate buffered saline. OGOR was incubated with each ligand for 45 minutes at 28° C. in wells sealed with Topseal-A™ (Packard).
Following the incubation, Coelenterazine 400a substrate (Biosynth) was added to a final concentration of 5 μM.
BRET^2 signals were calculated as the ratio of emission intensity at 515 nm to that at 410 nm. All data are reported as the mean±standard deviation (SD) or mean±standard error of the mean (SEM) as described in the text. […]

[2] = tested on: SGSR-114/113 (BRET^2 tagged str-114/113 chimera); experiment: BRET^2 response of SGSR-114/113 to volatile ligands, plate based; format: biochemical, C. elegans; settings: for detectable level: in vitro
Excerpt: (§3) SGSRs are chimaeras of C. elegans str-112, str-113, str-114, str-115, str-116 and str-114/113 with the BRET^2 tags GFP^2 and RLuc or RLuc2 inserted in the third intracellular loop and at the C-terminus, respectively. The positions of the third intracellular loops of STR proteins were predicted using “TMAP” an algorithm from “The Biology Workbench” (a web-based tool for prediction of transmembrane segments http.//seqtool.sdsc.edu). These were named SGSR-112, SGSR-113, SGSR-114/113, SGSR-114, SGSR-115 and SGSR-116.
(§4) Except for SGSR-112, which was commercially synthesised, SGSR expression cassettes were designed and made by introducing multiple restriction sites into the relevant gene-specific PCR primers. PCR products containing those sites were cloned into TOPO PCR vectors (Invitrogen) and then digested with the corresponding restriction enzymes (REs) and ligated into the expression cassettes.
The SGSR 114/113 chimera was constructed by modifying C. elegans SGSR-113 (by replacing the first fragment of str-13, 113-1 using the restriction sites NcoI and BspEI in the cassette with the corresponding fragment of str-114, str-114-1). Str114-1 contains the first 720 str-114 nucleotides of, corresponding to its first 240 amino acids and was amplified by high fidelity PCR using primers incorporating the restriction sites, NcoI at the 5′ end and BspEI at the 3′ end.
(§5) The inventors selected a number of specific volatiles (including 1-hexanol, 1 butanol, butane-2,3-dione, 3-hydroxybutanone, 2-pentanone and 2 nonanone) for further testing based on GC-MS analysis of the headspace of OP50 bacteria grown on LB. […] This is the first time that a volatile ligand (or indeed any ligand) has been identified for a BRET-based GPCR sensor, in the absence of prior knowledge of the ligand based on research with the unmodified parental GPCR.

OGOR2 [3] = experiment: Diacetyl detection with highly diluted OGOR2, wide bore chamber and liquid light guide; format: biochemical, C. elegans; settings: 1 μM diacetyl
Procedure: On-chip measurements were carried out with a microfluidic chip similar to that shown in FIG. 31A with two inlets, a passive mixing element and a detection chamber. An aluminium mirror was placed on top of the reaction chamber to enhance the BRET signal.
A number of variations were compared with the original set up (FIG. 31A). The diameter of the reaction chamber was increased to 4 mm (FIG. 34A) from an original diameter of 2 mm. The height of the reaction chamber was varied between 1 and 2 mm. A single optical fiber of diameter 0.4-1.0 mm (FIG. 31A) was replaced with a liquid light guide or fibre-optic bundle of 5 mm core diameter NA=0.59, feeding into a dichroic block (FIG. 34A), or a bifurcated light guide of trunk core diameter 6 mm branch core diameter of 4 mm (FIG. 37) or a multifurcated light guide of trunk core diameter 8 mm and branch core diameter 4 mm (FIGS. 38 and 40).
OGOR2 sensor solution was prepared at day 4 in PBS at high (100 and 50 times) dilution ratios from stock solution. Clz400a was prepared in PBS at 31.25 μM. When diacetyl was included, it was added to the OGOR2 sensor solution at a final concentration of 1 μM. For the control experiment, only DI water was added. The sensor tubes without and with diacetyl were both incubated at 28° C. in 30 min.

OGOR2 [4] = experiment: Endpoint on-chip microfluidic diacetyl assay with OGOR2; format: biochemical, C. elegans
Procedure: Endpoint microfluidic assays were carried out on-chip in two inlet microfluidic mixer devices integrated with an optical detection chamber. […] OGOR and OGOR2 membrane pellets were resuspended in 1 mL of PBS, diluted as required and incubated at 28° C. for 45 minutes with diacetyl solution at concentrations ranging from 1 aM-1 μM. The preparation was introduced in the second inlet. On-chip mixing was initiated with an input flow rate of 400 μl/hr for each inlet.
(§6) BRET^2 signals were calculated as the ratio of emission intensity at 515 nm to that at 410 nm. All data are reported as the mean±standard deviation (SD) or mean±standard error of the mean (SEM) as described in the text. Curves were fitted with log [agonist] vs response curves with variable slopes following normalization of data, using Graphpad Prism version 5.03 for Windows. Two-tailed unpaired t-tests were carried out in Graphpad prism. Statistical significance was defined as p<0.05.

OGOR2 [5] = experiment: Real-time on-chip microfluidic diacetyl assay with OGOR2; format: biochemical, C. elegans; settings: 1 fM diacetyl, 290 nM protein, 12.5 μM substrate, flow rates 50, 100, 200 and 300 μl/hr
Procedure: On-chip real-time measurements were carried out in a three-inlet microfluidic mixer device integrated with an optical detection chamber. […] The second inlet contained diacetyl (2,3-butanedione) diluted to give a final concentration of 1 fM in PBS, or PBS only as a control. The third inlet was used to introduce sensor protein suspension, which was prepared by resuspending the membrane pellet describe above in 1 mL of PBS and further diluting as required. The on-chip mixing was initiated by using input flow rates ranging from 50-400 μl/hr.
as §6

[6] = tested on: OGOR2 (ODR-10 receptor fused to RLuc2 and GFP^2); experiment: Diacetyl assay with OGOR2, 96-well plate BRET^2; format: biochemical, C. elegans
Excerpt: as §2
Yeast colonies were inoculated in 10 mL SCMM-U (S. cerevisiae minimal media, composition per 200 mL: 1.34 g […] without amino acids and 0.38 g yeast supplementation media without uracil) supplemented with 2% glucose and incubated overnight at 28° C. An aliquot of the overnight culture was used to inoculate SCMM-U supplemented with 2% raffinose and 2% galactose to a final O.D..600 of 0.4 and incubated for an additional 72 h at 15° C. with shaking at 200 rpm.
Cell cultures were centrifuged at 1500×g for 5 minutes at 4° C. Cells were resuspended in 1 mL of sterile water and centrifuged for 1 minute at 10,000×g. Cells were resuspended in 4 mL phosphate buffer solution (PBS). The cells were lysed by French press (˜18000 psi) and cellular debris was removed by centrifugation at 15000×g (4° C.) for 15 minutes. Following this the supernatant fraction was centrifuged at 40,000 rpm (Beckman Coulter L-80 ultra-centrifuge) for 1 hour at 4° C. The supernatant was decanted and the membrane pellet was resuspended in 1 mL of PBS and stored at 4° C. for 48 hrs.
All ligand solutions were prepared directly in water. The OGOR concentration was normalized using GFP^2 intensity at 510 nm. Assays were carried out in 96-well plates (Perkin-Elmer) in a total volume of 100 μL in phosphate buffered saline. OGOR was incubated with each ligand for 45 minutes at 28° C. in wells sealed with Topseal-A™ (Packard). […]
BRET^2 signals were calculated as the ratio of emission intensity at 515 nm to that at 410 nm. […]

[7] = tested on: SGSR-113 (BRET^2 tagged str-113); experiment: BRET^2 response of SGSR-113 to volatile ligands, plate based; format: biochemical, C. elegans; settings: 1 μM of odorant
Excerpt: as §3, §4, §5

[8] = target: SGSR-112 (BRET^2 tagged str-112) (Caenorhabditis elegans, UniProt O16913); experiment: BRET^2 response of SGSR-112 to volatile ligands, plate based; format: biochemical, C. elegans
Chain of SGSR-112 (BRET^2 tagged str-112) (O16913 entry or part of it): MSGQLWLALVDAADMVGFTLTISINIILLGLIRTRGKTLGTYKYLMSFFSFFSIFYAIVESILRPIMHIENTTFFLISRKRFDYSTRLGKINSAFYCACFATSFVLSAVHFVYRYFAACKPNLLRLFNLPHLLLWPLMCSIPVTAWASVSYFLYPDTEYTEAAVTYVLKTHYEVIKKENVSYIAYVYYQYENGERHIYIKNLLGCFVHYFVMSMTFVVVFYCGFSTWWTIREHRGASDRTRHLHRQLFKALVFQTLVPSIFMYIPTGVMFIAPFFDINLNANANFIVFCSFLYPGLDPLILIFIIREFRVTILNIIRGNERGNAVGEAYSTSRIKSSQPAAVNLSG
Excerpt: as §3, §4, §5

Structure (SMILES): OC[C@H]1O[C@H](O[C@H]2[C@H](O)[C@@H](O)C(O)O[C@@H]2CO)[C@H](O)[C@@H](O)[C@@H]1O (mixture of isomers) [maltose]
- signal change, FRET ([1]; Fehr et al., 2002): ~12%
- linear range of FRET response ([1]; two log units): 0.26 to 21.12 µM
- incubation time at which BRET^2 response reached a maximum (GFP^2—MBP—RLuc2; 0.1 mM maltose): 30 min
- BRET^2 response to maltose (GFP^2—MBP—RLuc2 W140A): abolished

Structure (SMILES): CC(=O)C(C)=O [diacetyl, 2,3-butanedione]
- percentage change in BRET^2 signal in response to diacetyl (OGOR): 32%
- detectable level [2]: parts per quadrillion (sub pM) levels
- Diacetyl-dependent reduction in BRET^2 ratio (OGOR2 [3]; 50 times sensor dilution): 14.7%
- Diacetyl-dependent reduction in BRET^2 ratio (OGOR2 [3]; 100 times sensor dilution): 13.7%
- decrease in BRET^2 signal (OGOR2 [4]; 10 fM diacetyl, microfluidic endpoint): 36.9%
- EC50 (OGOR2 [4]; on-chip microfluidic endpoint): ~10 aM
- decrease in BRET^2 ratio (OGOR2 [5]): 27.4%
- decrease in BRET^2 signal ([6]; 1 μM diacetyl, microplate wells): 21.4%
- EC50 ([6]; microwell plate): 11.4 aM
- linear range of dose-dependent response ([6]; microwell plate, six log units): 10^−18 to 10^−12 M

Structure (SMILES): OC[C@H]1O[C@H](OC[C@H]2O[C@H](O[C@]3(CO)O[C@H](CO)[C@@H](O)[C@@H]3O)[C@H](O)[C@@H](O)[C@@H]2O)[C@H](O)[C@@H](O)[C@H]1O [raffinose]
- response of BRET biosensor to sugar (GFP^2—MBP—RLuc2; 0.1 mM sugar, 30 minutes at 28° C., 1 μM protein): did not respond

Structure (SMILES): CCCC(C)=O [2-pentanone]
- BRET^2 response to volatile ligand [7]: tested positive
- BRET^2 response to volatile ligand ([2]; 1 μM of odorant): tested positive
- detectable level [2]: parts per billion levels (nM) levels
- EC50 [8]: 0.15 nM
- BRET^2 response to volatile ligand ([8]; 1 μM of odorant): tested positive
